# Test results reported in ChEMBL document CHEMBL1146131, “3D-QSAR studies of farnesyltransferase inhibitors: a comparative molecular field analysis approach” (Bioorg Med Chem Lett, 2006).
# pIC50: −log10 of the molar value.
# Target: Protein farnesyltransferase (Homo sapiens, UniProt P49354+P49356)
# Assay: Inhibition of FTase
# Assay type: protein-complex assay
row,Compound,pIC50
1,Cn1cncc1C(OCc1ccc(C#N)cc1C(=O)Nc1cccc(Cl)c1)c1ccc(C#N)cc1 (stereo not given),6.12
2,Cn1cncc1C(OCc1ccc(C#N)cc1-c1cccc(Cl)c1)c1ccc(C(F)(F)F)cc1 (stereo not given),5.95
3,CCOc1ccc(-c2cc(C#N)ccc2COC(c2ccc(C#N)cc2)c2cncn2C)cc1 (stereo not given),5.92
4,COc1cccc(-c2cc(NS(C)(=O)=O)ccc2COC(c2ccc(C#N)cc2)c2cncn2C)c1 (stereo not given),4.45
5,N#Cc1ccc(C(OCc2ccc(C#N)cc2-c2ccc3c(c2)OCO3)c2cnccc2Cl)cc1 (stereo not given),4.82
6,COC(=O)c1ccc(COC(c2ccc(C#N)cc2)c2cncn2C)c(-c2cccc(OC)c2)c1 (stereo not given),4.88
7,Cn1cncc1C(OCc1ccc(C#N)cc1NS(=O)(=O)c1cccs1)c1ccc(C#N)cc1 (stereo not given),6.05
8,Cn1cncc1C(OCc1ccc(C#N)cc1-c1cccc(Cl)c1)c1ccc(C#N)cc1F (stereo not given),6.11
9,Cn1cncc1C(OCc1ccc(C#N)cc1-c1ccc2c(c1)OC(F)(F)O2)c1ccc(C#N)cc1 (stereo not given),5.95
10,Cn1cncc1C(OCc1ccc(C#N)cc1NCc1cc(F)cc(F)c1)c1ccc(C#N)cc1 (stereo not given),6.21
11,COc1cccc(-c2cc(C#N)ccc2COC(c2ccc(C#N)c(Cl)c2)c2cncn2C)c1 (stereo not given),6.01
12,CCOc1cccc(-c2cc(Cl)ccc2COC(c2ccc(C#N)cc2)c2cncn2C)c1 (stereo not given),5.95
13,Cn1cncc1C(OCc1ccc(Cl)cc1-c1cccc(Cl)c1)c1ccc(C#N)cc1 (stereo not given),6.09
14,Cc1ncc(C(OCc2ccc(C#N)cc2-c2cccc(Cl)c2)c2ccc(C#N)cc2)n1C (stereo not given),5.69
15,COCC(=O)Nc1ccc(COC(c2ccc(C#N)cc2)c2cncn2C)c(-c2cccc(OC)c2)c1 (stereo not given),4.95
16,COc1cccc(-c2cc(Cl)ccc2COC(c2ccc(C#N)cc2)c2cncn2C)c1 (stereo not given),6.04
17,Cn1cncc1C(OCc1ccc(C#N)cc1-c1ccc2c(c1)OCO2)c1ccc(C#N)cc1 (stereo not given),6.06
18,Cn1cncc1C(OCc1ccc(Cl)cc1-c1ccc(Cl)cc1)c1ccc(C#N)cc1 (stereo not given),5.31
19,Cn1cncc1C(OCc1ccc(C#N)cc1NS(=O)(=O)c1cccc2ccccc12)c1ccc(C#N)cc1 (stereo not given),5.58
20,Cn1cncc1C(OCc1ccc(C#N)cc1-c1cccc(Cl)c1)c1ccc(C#N)cc1 (stereo not given),6.06

row,Compound,pIC50
1,Cn1cncc1C(OCc1ccc(C#N)cc1NC(=O)c1ccccc1)c1ccc(C#N)cc1 (stereo not given),5.30
2,COc1ccc(-c2cc(C#N)ccc2COC(c2ccc(C#N)cc2)c2cncn2C)cc1 (stereo not given),6.01
3,COCc1cccc(-c2cc(C#N)ccc2COC(c2ccc(C#N)cc2)c2cncn2C)c1 (stereo not given),6.72
4,Cn1cncc1C(OCc1ccc(C#N)cc1-c1cccc(Cl)c1)c1ccc(C#N)c(F)c1 (stereo not given),6.35
5,Cn1cncc1C(OCc1ccc(C#N)cc1-c1cccc2ccccc12)c1ccc(C#N)cc1 (stereo not given),6.02
6,Cn1cncc1C(OCc1ccc(C#N)cc1-c1cc(F)cc(F)c1)c1ccc(C#N)cc1 (stereo not given),6.00
7,Cn1cncc1C(OCc1ccc(C#N)cc1-c1cccc(OC(F)(F)F)c1)c1ccc(C#N)cc1 (stereo not given),6.07
8,Cc1ccc(-c2cc(C#N)ccc2COC(c2ccc(C#N)cc2)c2cncn2C)cc1 (stereo not given),5.95
9,COc1cccc(-c2cc([N+](=O)[O-])ccc2COC(c2ccc(C#N)cc2)c2cncn2C)c1 (stereo not given),5.95
10,Cc1ncc(C(OCc2ccc(C#N)cc2-c2ccc3c(c2)OCO3)c2ccc(C#N)cc2)n1C (stereo not given),5.79
11,COc1cccc(-c2cc(N)ccc2COC(c2ccc(C#N)cc2)c2cncn2C)c1 (stereo not given),4.39
12,COc1cccc(-c2cc(C#N)ccc2COC(c2ccc(Cl)cc2)c2cncn2C)c1 (stereo not given),5.69
13,COc1cccc(-c2cc(C=O)ccc2COC(c2ccc(C#N)cc2)c2cncn2C)c1 (stereo not given),5.79
14,Cc1ccc(S(=O)(=O)Nc2cc(C#N)ccc2COC(c2ccc(C#N)cc2)c2cncn2C)cc1 (stereo not given),6.00
15,N#Cc1ccc(C(OCc2ccc(C#N)cc2-c2cccc(Cl)c2)c2cncs2)cc1 (stereo not given),5.39
16,COc1cccc(-c2cc(C(=O)O)ccc2COC(c2ccc(C#N)cc2)c2cncn2C)c1 (stereo not given),4.08
17,Cn1cncc1C(OCc1ccc(C#N)cc1-c1cccc2cccnc12)c1ccc(C#N)cc1 (stereo not given),5.28
18,Cn1cncc1C(OCc1ccc(Cl)cc1-c1ccccc1Cl)c1ccc(C#N)cc1 (stereo not given),5.05
19,Cn1cncc1C(OCc1ccc(C#N)cc1C(=O)Nc1ccccc1)c1ccc(C#N)cc1 (stereo not given),5.65
20,CCOc1cccc(-c2cc(C#N)ccc2COC(c2ccc(C#N)cc2)c2cncn2C)c1 (stereo not given),6.16
